Laboratory results published in EP1632557B1, “Novel alkaline cellulases” (Novozymes A/S, priority 1994, dated 1995).

How the values were obtained:
[1] = biological target: T1, EG I' from Fusarium oxysporum (Figure 4) (Fusarium oxysporum, UniProt P46237); assay: Cellulase activity on cellotriose (coupled glucose oxidase/peroxidase/ABTS assay); conditions: pH 8,5 and 40°C; calculated from a Lineweaver-Burk plot
T1 sequence (P46237 19-429): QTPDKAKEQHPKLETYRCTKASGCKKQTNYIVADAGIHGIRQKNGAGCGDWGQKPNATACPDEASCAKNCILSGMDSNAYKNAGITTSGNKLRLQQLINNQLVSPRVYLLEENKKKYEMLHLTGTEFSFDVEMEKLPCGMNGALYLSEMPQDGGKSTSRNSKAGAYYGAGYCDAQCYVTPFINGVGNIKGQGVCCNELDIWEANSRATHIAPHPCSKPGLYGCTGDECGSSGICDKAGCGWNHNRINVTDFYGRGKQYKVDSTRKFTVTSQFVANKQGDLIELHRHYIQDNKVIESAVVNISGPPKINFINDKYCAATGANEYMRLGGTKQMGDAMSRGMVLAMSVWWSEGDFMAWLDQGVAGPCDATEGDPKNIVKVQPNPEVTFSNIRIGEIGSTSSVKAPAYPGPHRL
Experimental: (§1) The cellulase activity on cellotriose, in terms of kcat·s^-1, was determined by a coupled assay: Cellotriose → Glucose + Cellobiose (cat.: cellulase) Glucose + O2 + H2O → Gluconate + H2O2 (cat.: Glucoseoxidase) H2O2 + ABTS^R → ABTS^Ox (cat.: Peroxidase) which is followed spectrophotometrically at 418 nm (maximum absorbance of ABTS^Ox at 418 nm).
(§2) The GOD-Perid Test Kit (available from Boehringer Mannheim, art. 124 036) was used. The buffer-enzyme solution in the test kit was dissolved in 500 ml milli Q water. pH of the solution was adjusted to 8.5 (NaOH).
(§3) 80 mg of ABTS^R (available from Boehringer Mannheim, art. 756 407) was dissolved in 10 ml GOD-Perid corresponding to a total concentration of ABTS^R of 10 mg/ml.
(§4) A substrate stock solution of 5 mmole (2.52 mg/ml) of cellotriose (available from Merck art. 24741) in water was prepared. Diluted solutions in water corresponding to 1000 µmole, 500 µmole, 376 µmole, 250 µmole, 100 µmole and 60 µmole were prepared.
(§5) The reaction mixture was prepared by mixing 1 part of substrate solution with 1 part of GOD-Perid.
(§6) A solution of the cellulase enzyme to be determined in a concentration of 1.0 - 3.0 µmole was prepared. […]
(§7) The cellulase activity on cellotriose, in terms of kcat·s^-1, was calculated from a Lineweaver-Burk plot (a plot of 1/V versus 1/[S]): the slope and the intersection were determined by linear regression analysis. […]

[2] = substrate: OC[C@H]1O[C@@H](O[C@H]2[C@H](O)[C@@H](O)[C@H](O[C@H]3[C@H](O)[C@@H](O)C(O)O[C@@H]3CO)O[C@@H]2CO)[C@H](O)[C@@H](O)[C@@H]1O; assay: purified protein, by the assay type; conditions: other: substrate cellotriose, pH 8,5 and 40°C, calculated from a Lineweaver-Burk plot, pH 8.5
Experimental: as §1, §2, §3, §4, §5, §6, §7

Molecule	catalytic activity on cellotriose (Kcat) [1]	Km [2] [µM]
OC[C@H]1O[C@@H](O[C@H]2[C@H](O)[C@@H](O)[C@H](O[C@H]3[C@H](O)[C@@H](O)C(O)O[C@@H]3CO)O[C@@H]2CO)[C@H](O)[C@@H](O)[C@@H]1O (some centres unmarked) [cellotriose]	5,5 pr. sec	
EG I' from Fusarium oxysporum (Figure 4) (Fusarium oxysporum) (protein) QTPDKAKEQHPKLETYRCTKASGCKKQTNYIVADAGIHGIRQKNGAGCGDWGQKPNATACPDEASCAKNCILSGMDSNAYKNAGITTSGNKLRLQQLINNQLVSPRVYLLEENKKKYEMLHLTGTEFSFDVEMEKLPCGMNGALYLSEMPQDGGKSTSRNSKAGAYYGAGYCDAQCYVTPFINGVGNIKGQGVCCNELDIWEANSRATHIAPHPCSKPGLYGCTGDECGSSGICDKAGCGWNHNRINVTDFYGRGKQYKVDSTRKFTVTSQFVANKQGDLIELHRHYIQDNKVIESAVVNISGPPKINFINDKYCAATGANEYMRLGGTKQMGDAMSRGMVLAMSVWWSEGDFMAWLDQGVAGPCDATEGDPKNIVKVQPNPEVTFSNIRIGEIGSTSSVKAPAYPGPHRL		500
